# Experimental data published in US10654808B2, “Tyrosine kinase inhibitor and pharmaceutical composition comprising same” (GUANGDONG RAYNOVENT BIOTECH CO., LTD., priority 2015, dated 2020).
# pIC50: −log10 of the molar value.
# Assays:
# Assay type in all cases: biochemical
# VEGFR2 = target: T1, VEGFR2 (Homo sapiens, UniProt P35968); assay: Z'-LYTE in vitro enzyme activity assay, VEGFR2; conditions: 100 μM ATP, 60 minutes, room temperature; read-out: IC50 detected by Z'-LYTE, VEGFR2
# T1 construct: purchased Life technology
# Protocol: (§1) The enzyme activity was measured by Z′-LYTE™ Detection Kinase Assay. The IC50 value of the compounds was used as an index to evaluate the inhibitory effect of the compounds on VEGFR2, FGFR1 and PDGFRB.
# (§2) Recombinant human VEGFR2 and FGFR1 proteases were purchased from Life technology, PDGFRB Protease was purchased from Millipore.
# (§3) Z-LYTE™ Kit Tyr1 and Tyr4 were purchased from Life technology. Multi-microplate reader, Envision (PerkinElmer) read board was used.
# (§4) The test compounds were diluted 3 times with a concentration gradient, the final concentration was from 10 μM to 0.17 nM with a total of 11 concentrations, and each concentration had two parallel holes; the content of DMSO in the assay was 1%.
# 3 nM VEGFR2 protein kinase, 2 μM Tyr1 peptide, 100 μM ATP, 50 mM HEPES (pH 7.5), 10 mM MgCl2, 1 mM EGTA, 0.01% BRIJ-35. The detector plate was Black Proxiplate 384-Plus plate (PerkinElmer), the reaction was performed at room temperature for 60 minutes, and the reaction system was 10 μl.
# (§5) The reaction was stopped by adding 5 μl of DV reagent B (1:128) to the kinase reaction solution and incubated at 23° C. for 60 minutes. The Envision instrument was used to read the plate.
# (§6) The data was converted to phosphorylation rate and inhibition rate and the 4 parameter curve fitting (Model 205 in XLFIT5, iDBS) was used to get IC50 data of the compounds.
# FGFR1 = target: T2, FGFR1 (Homo sapiens, UniProt P11362); assay: Z'-LYTE in vitro enzyme activity assay, FGFR1; conditions: 25 μM ATP, 60 minutes, room temperature; read-out: IC50 detected by Z'-LYTE, FGFR1
# T2 construct: purchased Life technology
# Protocol: as §1, §2, §3, §4
# (§7) 1 nM FGFR1 protein kinase, 2 μM Tyr4 peptide, 25 μM ATP, 50 mM HEPES (pH 7.5), 10 mM MgCl2, 1 mM EGTA, 0.01% BRIJ-35, 2 mM MnCl2, 1 mM DTT. The detector plate was Black Proxiplate 384-Plus plate (PerkinElmer), the reaction was performed at room temperature for 60 minutes, and the reaction system was 10 μl.
# as §5, §6
# PDGFRB = target: T3, PDGFRB (Homo sapiens, UniProt P09619); assay: Z'-LYTE in vitro enzyme activity assay, PDGFRB; conditions: 100 μM ATP, 60 minutes, room temperature; read-out: IC50 detected by Z'-LYTE, PDGFRB
# T3 construct: purchased Millipore
# Protocol: as §1, §2, §3, §4
# as §7, with “40 nM PDGFRB” for “1 nM FGFR1”, “40 nM PDGFRB protein kinase,” for “1 nM FGFR1 protein kinase,”, “Tyr4 peptide, 100 μM ATP,” for “Tyr4 peptide, 25 μM ATP,”
# as §5, §6
# T1 sequence (P35968 20-1356): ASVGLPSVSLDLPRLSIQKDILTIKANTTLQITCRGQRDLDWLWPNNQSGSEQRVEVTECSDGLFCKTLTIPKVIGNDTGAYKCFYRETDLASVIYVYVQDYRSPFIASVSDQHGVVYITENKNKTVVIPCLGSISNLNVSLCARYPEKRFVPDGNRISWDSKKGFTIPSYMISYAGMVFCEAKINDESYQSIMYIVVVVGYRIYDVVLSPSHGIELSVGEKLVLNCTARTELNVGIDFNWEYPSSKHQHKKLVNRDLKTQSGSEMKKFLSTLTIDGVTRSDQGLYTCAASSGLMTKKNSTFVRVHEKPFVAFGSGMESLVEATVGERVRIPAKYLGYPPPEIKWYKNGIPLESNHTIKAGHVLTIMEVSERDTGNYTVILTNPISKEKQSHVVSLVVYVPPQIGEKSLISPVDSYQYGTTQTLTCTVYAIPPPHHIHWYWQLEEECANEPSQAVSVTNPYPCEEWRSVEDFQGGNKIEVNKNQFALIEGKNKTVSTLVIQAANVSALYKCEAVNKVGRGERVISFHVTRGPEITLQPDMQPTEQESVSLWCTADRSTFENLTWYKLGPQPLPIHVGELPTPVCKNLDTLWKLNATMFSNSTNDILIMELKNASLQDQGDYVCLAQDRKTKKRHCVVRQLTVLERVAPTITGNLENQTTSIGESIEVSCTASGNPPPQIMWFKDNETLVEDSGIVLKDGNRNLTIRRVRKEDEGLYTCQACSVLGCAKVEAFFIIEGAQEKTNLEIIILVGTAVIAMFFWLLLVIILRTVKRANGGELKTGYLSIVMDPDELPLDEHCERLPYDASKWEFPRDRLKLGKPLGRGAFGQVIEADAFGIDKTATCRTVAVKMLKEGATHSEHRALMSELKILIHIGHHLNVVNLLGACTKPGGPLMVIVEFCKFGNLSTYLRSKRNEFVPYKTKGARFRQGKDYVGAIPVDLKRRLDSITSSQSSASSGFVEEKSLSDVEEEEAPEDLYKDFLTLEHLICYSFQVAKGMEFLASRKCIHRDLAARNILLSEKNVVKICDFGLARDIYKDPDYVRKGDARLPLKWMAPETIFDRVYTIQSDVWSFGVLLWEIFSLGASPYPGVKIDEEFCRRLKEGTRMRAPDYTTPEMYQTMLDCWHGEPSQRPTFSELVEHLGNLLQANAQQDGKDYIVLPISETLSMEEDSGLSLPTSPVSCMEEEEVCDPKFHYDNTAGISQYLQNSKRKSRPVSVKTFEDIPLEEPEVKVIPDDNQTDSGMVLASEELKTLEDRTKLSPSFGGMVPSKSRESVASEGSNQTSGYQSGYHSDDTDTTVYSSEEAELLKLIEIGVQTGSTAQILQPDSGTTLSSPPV
# T2 sequence (P11362 22-822): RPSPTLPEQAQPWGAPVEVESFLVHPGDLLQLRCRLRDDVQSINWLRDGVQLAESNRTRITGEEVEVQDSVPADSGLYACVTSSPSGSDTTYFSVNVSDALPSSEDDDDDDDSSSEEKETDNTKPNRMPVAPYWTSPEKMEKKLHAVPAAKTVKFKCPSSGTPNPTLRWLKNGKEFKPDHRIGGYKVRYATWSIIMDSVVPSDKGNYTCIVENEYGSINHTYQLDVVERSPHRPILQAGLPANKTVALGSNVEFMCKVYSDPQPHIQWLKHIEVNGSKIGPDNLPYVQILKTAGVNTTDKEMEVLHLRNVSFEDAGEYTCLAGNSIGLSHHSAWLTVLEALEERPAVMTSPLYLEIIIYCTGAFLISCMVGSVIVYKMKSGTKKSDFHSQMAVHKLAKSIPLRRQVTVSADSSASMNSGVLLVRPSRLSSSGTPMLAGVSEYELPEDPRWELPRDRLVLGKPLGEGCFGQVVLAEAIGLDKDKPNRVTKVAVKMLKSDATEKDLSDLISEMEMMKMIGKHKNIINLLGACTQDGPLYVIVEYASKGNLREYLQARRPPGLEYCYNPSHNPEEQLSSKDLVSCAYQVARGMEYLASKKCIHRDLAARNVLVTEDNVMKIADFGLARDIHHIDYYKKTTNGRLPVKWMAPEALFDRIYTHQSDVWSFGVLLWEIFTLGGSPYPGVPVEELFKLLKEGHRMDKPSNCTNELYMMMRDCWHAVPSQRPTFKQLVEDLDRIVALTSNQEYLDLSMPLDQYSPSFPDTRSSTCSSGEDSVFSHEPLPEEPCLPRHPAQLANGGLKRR
# T3 sequence (P09619 33-1106): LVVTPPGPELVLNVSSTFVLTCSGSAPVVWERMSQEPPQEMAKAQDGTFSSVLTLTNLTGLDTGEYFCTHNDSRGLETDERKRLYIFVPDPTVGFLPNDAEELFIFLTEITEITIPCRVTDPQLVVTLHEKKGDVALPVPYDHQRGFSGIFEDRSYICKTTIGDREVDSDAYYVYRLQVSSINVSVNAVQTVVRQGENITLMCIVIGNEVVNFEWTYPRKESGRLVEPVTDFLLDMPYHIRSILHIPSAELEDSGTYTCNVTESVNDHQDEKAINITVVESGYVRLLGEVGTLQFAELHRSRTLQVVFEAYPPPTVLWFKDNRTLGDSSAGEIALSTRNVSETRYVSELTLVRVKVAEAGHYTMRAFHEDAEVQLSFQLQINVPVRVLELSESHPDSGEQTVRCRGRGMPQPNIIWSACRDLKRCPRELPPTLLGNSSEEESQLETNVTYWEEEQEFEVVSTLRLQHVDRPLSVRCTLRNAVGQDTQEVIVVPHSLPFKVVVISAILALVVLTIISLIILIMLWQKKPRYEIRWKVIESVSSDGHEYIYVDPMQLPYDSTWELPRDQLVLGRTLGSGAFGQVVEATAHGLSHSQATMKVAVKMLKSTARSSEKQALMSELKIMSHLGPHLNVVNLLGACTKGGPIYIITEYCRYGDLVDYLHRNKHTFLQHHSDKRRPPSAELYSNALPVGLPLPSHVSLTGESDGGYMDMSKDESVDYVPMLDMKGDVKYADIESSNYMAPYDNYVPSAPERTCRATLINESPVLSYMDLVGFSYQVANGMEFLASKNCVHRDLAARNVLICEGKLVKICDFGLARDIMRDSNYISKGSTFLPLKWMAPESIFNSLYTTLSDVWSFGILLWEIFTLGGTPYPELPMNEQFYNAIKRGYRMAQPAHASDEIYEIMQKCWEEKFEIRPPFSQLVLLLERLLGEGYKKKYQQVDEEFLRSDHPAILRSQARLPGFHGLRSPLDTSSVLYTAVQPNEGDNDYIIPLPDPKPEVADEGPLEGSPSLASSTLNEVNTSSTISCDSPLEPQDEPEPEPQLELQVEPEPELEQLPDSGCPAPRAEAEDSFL
SMILES,pIC50 (VEGFR2),pIC50 (FGFR1),pIC50 (PDGFRB)
COc1cc2nccc(Oc3ccc(NC(=S)N4CCCC4)c(Cl)c3)c2cc1C(N)=O [Example 32],> 7.30,6.00 to 6.70,6.00 to 6.70
COc1cc2nccc(Oc3ccc(NC(=S)NC4CC4)cc3C(F)(F)F)c2cc1C(N)=O [Example 42],6.00 to 6.70,6.00 to 6.70,6.00 to 6.70
COc1cc2nccc(Oc3ccc(NC(=S)Nc4cc[nH]n4)c(Cl)c3)c2cc1C(N)=O [Example 4],6.70 to 7.30,6.00 to 6.70,6.00 to 6.70
COc1cc2nccc(Oc3ccc(NC(=S)NC4CCOCC4)c(Cl)c3)c2cc1C(N)=O [Example 15],6.00 to 6.70,6.00 to 6.70,6.70 to 7.30
COc1cc2nccc(Oc3ccc(NC(=S)NCC(C)(C)O)c(Cl)c3)c2cc1C(N)=O [Example 30],6.00 to 6.70,6.00 to 6.70,6.00 to 6.70
COc1cc2nccc(Oc3ccc(NC(=S)N4CC[C@H](O)C4)c(Cl)c3)c2cc1C(N)=O [Example 74],6.70 to 7.30,6.00 to 6.70,6.00 to 6.70
COc1cc2nccc(Oc3ccc(NC(=S)NC4CC4)c(Cl)c3)c2cc1C(=O)N1CCCCC1 [Example 49],6.00 to 6.70,6.00 to 6.70,6.70 to 7.30
O=C1NCOc2cc3nccc(Oc4ccc(NC(=S)NC5CC5)c(Cl)c4)c3cc21 [Example 45],6.00 to 6.70,6.00 to 6.70,6.00 to 6.70
COc1cc2nccc(Oc3ccc(NC(=S)NCc4cccnc4)c(Cl)c3)c2cc1C(N)=O [Example 20],6.70 to 7.30,6.00 to 6.70,> 7.30
COc1cc2nccc(Oc3ccc(NC(=S)NC4CC4)c(Cl)c3)c2cc1C#N [Example 80],6.70 to 7.30,6.00 to 6.70,6.00 to 6.70
COc1cc2nccc(Oc3ccc(NC(=S)Nc4cnc(C)s4)c(Cl)c3)c2cc1C(N)=O [Example 71],6.70 to 7.30,6.00 to 6.70,6.70 to 7.30
COc1cc2nccc(Oc3ccc(NC(=S)NC4CC4)c(Cl)c3)c2cc1C(=O)N1CCCC1 [Example 48],6.00 to 6.70,6.00 to 6.70,6.70 to 7.30
COc1cc2nccc(Oc3ccc(NC(=S)NCCN(C)C)c(Cl)c3)c2cc1C(N)=O [Example 23],6.00 to 6.70,6.00 to 6.70,6.70 to 7.30
Cc1c(OCC(C)O)cn2ncnc(Oc3ccc(NC(=S)NC4CC4)c(Cl)c3)c12 (stereo not drawn) [Example 25],6.00 to 6.70,6.00 to 6.70,6.00 to 6.70
COc1cc2nccc(Oc3ccc(NC(=S)N4CC[C@@H](O)C4)c(Cl)c3)c2cc1C(N)=O [Example 73],6.70 to 7.30,6.00 to 6.70,6.00 to 6.70
COc1cc2nccc(Oc3ccc(NC(=S)NCCC#N)c(Cl)c3)c2cc1C(N)=O [Example 18],6.00 to 6.70,6.00 to 6.70,6.00 to 6.70
COc1cc2nccc(Oc3ccc(NC(=S)N[C@@H](C)CO)c(Cl)c3)c2cc1C(N)=O [Example 22],6.70 to 7.30,6.00 to 6.70,6.70 to 7.30
COCCNC(=O)c1cc2c(Oc3ccc(NC(=S)NC4CC4)c(Cl)c3)ccnc2cc1OC [Example 62],6.70 to 7.30,6.00 to 6.70,6.00 to 6.70
COc1cc2nccc(Oc3ccc(N4C(=O)CN(C)C4=S)c(Cl)c3)c2cc1C(N)=O [Example 81],6.00 to 6.70,6.00 to 6.70,6.70 to 7.30
COc1cc2nccc(Oc3ccc(NC(N)=S)c(Cl)c3)c2cc1C(N)=O [Example 57],> 7.30,6.00 to 6.70,6.70 to 7.30
COc1cc2nccc(Oc3ccc(NC(=S)N4CCN(C)CC4)c(Cl)c3)c2cc1C(N)=O [Example 51],6.00 to 6.70,6.00 to 6.70,6.70 to 7.30
COc1cc2nccc(Oc3ccc(NC(=S)NC4CC4)nc3)c2cc1C(N)=O [Example 43],6.00 to 6.70,6.00 to 6.70,> 7.30
COc1cc2nccc(Oc3ccc(NC(=S)Nc4ccc(F)cc4)c(Cl)c3)c2cc1C(N)=O [Example 64],6.70 to 7.30,6.00 to 6.70,> 7.30
COc1cc2nccc(Oc3ccc(NC(=S)NCCc4ccccc4)c(Cl)c3)c2cc1C(N)=O [Example 14],6.00 to 6.70,6.00 to 6.70,6.70 to 7.30
COc1cc2nccc(Oc3ccc(NC(=S)N4CCC(F)(F)CC4)c(Cl)c3)c2cc1C(N)=O [Example 67],6.70 to 7.30,6.00 to 6.70,6.00 to 6.70
COc1cc2nccc(Oc3ccc(NC(=S)NC4CCC(F)(F)CC4)c(Cl)c3)c2cc1C(N)=O [Example 61],6.00 to 6.70,6.00 to 6.70,6.70 to 7.30

# Now from value to compound:
pIC50 (VEGFR2),pIC50 (FGFR1),pIC50 (PDGFRB),SMILES
6.70 to 7.30,6.00 to 6.70,6.70 to 7.30,COc1cc2nccc(Oc3ccc(NC(=O)N4CC[C@H](O)C4)c(Cl)c3F)c2cc1C(N)=O [Example 118]
6.00 to 6.70,6.00 to 6.70,6.00 to 6.70,COc1cc2nccc(Oc3ccc4c(C(=O)N5CCCC5)coc4c3)c2cc1C(N)=O [Example 206]
6.00 to 6.70,6.00 to 6.70,6.00 to 6.70,COc1cc2nccc(Oc3ccc(NC(=S)NC4CCNC4=O)c(Cl)c3)c2cc1C(N)=O (stereo not drawn) [Example 94]
6.00 to 6.70,6.00 to 6.70,6.00 to 6.70,COc1cc2nccc(Oc3cc(Cl)c4c(C(=O)N5CC(F)(F)C5)coc4c3)c2cc1C(N)=O [Example 195]
6.00 to 6.70,6.00 to 6.70,6.00 to 6.70,COc1cc2nccc(Oc3ccc(Nc4c(NCCC#N)c(=O)c4=O)c(Cl)c3)c2cc1C(N)=O [Example 137]
6.00 to 6.70,6.00 to 6.70,6.00 to 6.70,COc1cc2ncc(Cl)c(Oc3ccc(NC(=S)N4CC(F)(F)C4)c(Cl)c3)c2cc1C(N)=O [Example 89]
6.70 to 7.30,6.00 to 6.70,6.70 to 7.30,COc1cc2nccc(Oc3ccc(NC(=O)N4CCCC4)c(Cl)c3F)c2cc1C(N)=O [Example 120]
6.00 to 6.70,6.00 to 6.70,6.70 to 7.30,COc1cc2nccc(Oc3ccc(CC(=O)N4CC(F)(F)C4)cc3)c2cc1C(N)=O [Example 177]
6.00 to 6.70,6.00 to 6.70,6.00 to 6.70,COc1cc2nccc(Oc3ccc(NC(=S)NC4CCOC4=O)c(Cl)c3)c2cc1C(N)=O (stereo not drawn) [Example 93]
6.00 to 6.70,6.00 to 6.70,6.00 to 6.70,COc1cc2nccc(Oc3ccc4c(C(=O)N5CC[C@@H](F)C5)coc4c3)c2cc1C(N)=O [Example 202]
6.70 to 7.30,6.00 to 6.70,> 7.30,CCNC(=O)c1coc2cc(Oc3ccnc4cc(OC)c(C(N)=O)cc34)c(F)cc12 [Example 208]
6.00 to 6.70,6.00 to 6.70,6.00 to 6.70,COc1cc2nccc(Oc3ccc(Nc4c(NCc5ccncc5)c(=O)c4=O)c(Cl)c3)c2cc1C(N)=O [Example 153]
6.00 to 6.70,6.00 to 6.70,6.00 to 6.70,COc1cc2nccc(Oc3cc4occ(C(=O)N5CCCC5)c4cc3Cl)c2cc1C(N)=O [Example 197]
6.00 to 6.70,6.00 to 6.70,6.00 to 6.70,COc1cc2nccc(Oc3ccc4nc(NC5CCC5)sc4c3)c2cc1C(N)=O [Example 158]
6.00 to 6.70,6.00 to 6.70,6.00 to 6.70,COc1cc2nccc(Oc3ccc4c(C(=O)N5CC(F)(F)C5)c[nH]c4c3)c2cc1C(N)=O [Example 189]
> 7.30,6.00 to 6.70,6.00 to 6.70,COc1ccc2c(Oc3ccc(NC(=S)NC4CC4)c(Cl)c3)ccnc2c1 [Example 170]
6.00 to 6.70,6.00 to 6.70,6.00 to 6.70,COc1cc2nccc(Oc3ccc4c(C(=O)N5CCCC5)c[nH]c4c3)c2cc1C(N)=O [Example 188]
6.70 to 7.30,6.00 to 6.70,6.00 to 6.70,O=C(Nc1ccc(Oc2ccnc3cc(-c4cncn4-c4ccccc4)ccc23)c(F)c1Cl)NC1CC1 [Example 227]
> 7.30,6.00 to 6.70,6.70 to 7.30,COc1cc2nccc(Oc3ccc(N4C(=O)CNC4=S)c(Cl)c3)c2cc1C(N)=O [Example 166]
6.00 to 6.70,6.00 to 6.70,6.00 to 6.70,COc1cc2nccc(Oc3cc(Br)c4c(C(=O)N5CC(F)(F)C5)coc4c3)c2cc1C(N)=O [Example 204]
> 7.30,6.00 to 6.70,> 7.30,COc1cc2nccc(Oc3ccc(N4CC(=O)NC4=S)c(Cl)c3)c2cc1C(N)=O [Example 167]
